This is an account of results in DBAASP.

Test in all cases: ≥ marks a high value that may be exact or a test limit, other limits are often not marked, values filed in µg/mL are converted to µM
For assay [1], the system named is Bacillus cereus ATCC 11778.
Assay [2] deals with Bacillus subtilis CCT 2576.
Assay [3] deals with Bacillus thuringiensis ATCC 10792.
Assay [4] concerns Enterococcus faecium CCT 5079.
For assay [5], the system named is Enterococcus hirae ATCC 10541.
The test system of assay [6] is Escherichia coli ATCC 11775.
Assay [7] concerns Escherichia coli ATCC 25922.
The subject of assay [8] is Escherichia coli CCT 1457.
The test system of assay [9] is Micrococcus luteus ATCC 4698.
Assay [10] concerns Pseudomonas aeruginosa ATCC 13388.
The test system of assay [11] is Pseudomonas aeruginosa ATCC 15422.
Assay [12] relates to Salmonella enterica subsp. enterica serovar Choleraesuis ATCC 10708.
Assay [13] concerns Salmonella enterica subsp. enterica serovar Typhimurium ATCC 14028.
Assay [14] deals with Staphylococcus aureus ATCC 25923.
Assay [15] concerns Staphylococcus aureus ATCC 6538.
Assay [16] relates to Staphylococcus aureus CCT 2580.
The test system of assay [17] is Staphylococcus aureus CCT 6538.
The test system of assay [18] is Staphylococcus epidermidis ATCC 12228.
Assay [19] has as its system Streptococcus mutans AU159.
In assay [20] the test system is Streptococcus pneumoniae ATCC 11733.
The test system of assay [21] is Bacillus subtilis PY79.
Assay [22] relates to Escherichia coli DH5alpha.
Assay [23] has as its system Klebsiella pneumoniae ATCC 700603.
For assay [24], the system named is Pseudomonas aeruginosa PA14.
In assay [25] the test system is Pseudomonas aeruginosa PAO1.
Assay [26] has as its system Staphylococcus aureus ATCC 6538P.
For assay [27], the system named is Fusarium graminearum PH-1.

Values after ≈ are worked out from the molar mass of the structure shown.

As to `CC[C@H](C)[C@H](N)C(=O)N[C@@H](CC(N)=O)C(=O)N[C@@H](Cc1c[nH]c2ccccc12)C(=O)N[C@@H](CC(C)C)C(=O)N[C@@H](CCCCN)C(=O)N[C@@H](C)C(=O)N[C@@H](CCCCN)C(=O)N[C@@H](CCCCN)C(=O)N[C@H](C(=O)N[C@@H](C)C(=O)NCC(=O)N[C@@H](CCSC)C(=O)N[C@H](C(=O)N[C@@H](CC(C)C)C(N)=O)[C@@H](C)CC)C(C)C` [INWLKAKKVAGMIL], the MIC in assay [1] was 10.1 µM (≈ 16 µg/mL); in assay [2] it was 7.38 µM (≈ 11.7 µg/mL); in [3] it was at least 78.9 µM; in [4], at least 158 µM; in [5], at least 39.7 µM; in assay [6] it was at least 39.7 µM. Also, the MIC in assay [7] was 14.8 µM (≈ 23.4 µg/mL); in assay [8] it was 19.6 µM (≈ 31 µg/mL); in [9] it was 19.6 µM (≈ 31 µg/mL); in assay [10], at least 158 µM; in assay [11] it was at least 78.9 µM; in assay [12] it was at least 315 µM. The MIC in [13] is 315 µM (≈ 500 µg/mL); in assay [14], 39.7 µM (≈ 63 µg/mL); in assay [15], 27.1 µM (≈ 42.9 µg/mL); in [16] it was 27.1 µM (≈ 43 µg/mL); in assay [17] it was at least 39.7 µM; in [18], 39.7 µM (≈ 63 µg/mL). The MIC in assay [19] was at least 315 µM; in assay [20] it was at least 78.9 µM.
In the case of `CC(=O)NC(CC(C)C)C(=O)NC(CCCNC(=N)N)C(=O)NC(C(=O)NC(CCCNC(=N)N)C(=O)NC(CC(C)C)C(=O)NC(C)C(=O)NC(CO)C(=O)NC(Cc1c[nH]cn1)C(=O)NC(CC(C)C)C(=O)NC(CCCNC(=N)N)C(=O)NC(CCCCN)C(=O)NC(CC(C)C)C(=O)NC(CCCNC(=N)N)C(=O)NC(CCCCN)C(=O)NC(CCCNC(=N)N)C(=O)NC(CC(C)C)C(=O)NC(CC(C)C)C(N)=O)C(C)C` (stereo not drawn) [LRVRLASHLRKLRKRLL], the minimum inhibitory concentration (MIC) was at least 100 µM in assay [21]; 6.25 µM (≈ 13.6 µg/mL) in [7]; 12.5 µM (≈ 27.1 µg/mL) in [22]; 3.12 µM (≈ 6.77 µg/mL) in assay [23]; at least 50 µM in assay [24]; 25 µM (≈ 54.2 µg/mL) in assay [25]. The molecule further registered an MIC in assay [26] of at least 100 µM.
`NC(N)=NCCC[C@H](NC(=O)[C@H](CCCN=C(N)N)NC(=O)[C@H](CCCN=C(N)N)NC(=O)[C@H](Cc1ccccc1)NC(=O)CNC(=O)[C@@H](N)CCCN=C(N)N)C(=O)O` [RGFRRR] yielded an MIC in [27] of 12 µM (≈ 10.2 µg/mL).
